Data on one compound can be found in patent US20140050670A1, “MULTIFUNCTIONAL NANOPARTICLES” (THE UNIVERSITY OF WESTERN AUSTRALIA, priority 2010, published 2014).

In data set [1] the test system is L-, T- and N-type Ca^2+ channels. The following applies: cited from earlier work.
The conditions of data set [2]: humans; cited from earlier work.
For data set [3] the following is noted: rats, 24 hr after oral administration; cited from earlier work.
The subject of data set [4] is NMDA, kainate or AMPA binding sites. The following applies: cited from earlier work.
Another data set deals with PC12 cells. Put plainly: Intracellular calcium quantification after glutamate challenge (Fura-2). It counts as cell-based, rat. The following applies: glutamate 10 mM, 24 hr; nanospheres 25 μg mL^−1, free lomerizine 1 μM; relative to ENP; dihydrochloride. The text has this:
The pH in early endosomes is mildly acidic and falls below 5 as endosomes mature, so release of lomerizine from nanospheres could be triggered under these conditions. Here, we administered lomerizine to PC12 cells using nanospheres, and measured intracellular calcium concentrations after glutamate challenge to see if intracellular release of lomerizine could be employed for neuroprotection. PC12 cells express both N- and L-type VGCCs, but not T-type channels, and in undifferentiated PC12 cells, glutamate exposure (1-10 mm) over 24 hr causes oxidative stress and increased [Ca^2+]i.
Cells receiving nanosphere treatments were incubated with nanospheres containing lomerizine, with or without modification with PEI (LNP+PEI and LNP−PEI respectively), or nanospheres containing no lomerizine but with PEI modification (ENP). […]
For experiments, cells were seeded in 24-well plates containing 10 mm glass coverslips coated with poly(l-lysine) at a cell density of 5.0×10^4 mL^−1. […] After a further 24 hr, [Ca^2+]i was quantified as follows. […] Fluorescent data were measured on a Hamamatsu Orca ER digital camera attached to an inverted Nikon TE2000-U microscope, and analysed using Metamorph v6.3. […] [Ca^2+]i was calculated according to the equation: […]

Consider `COc1ccc(CN2CCN(C(c3ccc(F)cc3)c3ccc(F)cc3)CC2)c(OC)c1OC.Cl.Cl` [Lomerizine, 1-[bis(4-fluorophenyl)methyl]-4-(2,3,4-trimethoxybenzyl)piperazine dihydrochloride], for which, in data set [1], the “calcium channel blockade selectivity” value was “selectively blocks L- and T-type Ca^2+ channels, but not N-type channels”. Besides, the elimination half-life in data set [2] is 108 h. For the same compound, in data set [3], the “dose excreted in the feces” value is listed as 51.7% and the “dose excreted in urine” value is 4.1%. In data set [4], the “affinity for NMDA, kainate or AMPA binding sites” value is listed as “no reported affinity”. For the same compound, the “intracellular calcium [Ca^2+]i after glutamate” value in the data set with PC12 cells was “significant (p≦0.001) decrease”.
